Reference: patent US20190388559A1, “ENCAPSULATION OF METAL OXIDE NANOMATERIALS FOR CONTROLLED RELEASE AND TARGETED DELIVERY” (Boise State University, priority 2018, published 2019)

Tested on: T47D breast cancer cells
Experiment: Alamar Blue viability of T47D cells with or without UV triggered release
Type: cell-based
Conditions: 48 hours, free nZnO 16.3 μg/mL, free PTX 40 nM
Procedure: Both cell lines were cultured in log phase using RPMI 1640 media supplemented with 10% fetal bovine serum (FBS), 1% penicillin/streptomycin, 2 mM L-glutamine, and for T47D cells, 0.2 Units/mL of bovine insulin per American Type Culture Collection (ATCC) recommendations.
For viability assessments, both Jurkat and T47D cells were cultured following ATCC recommendations noted above. For the Jurkat T cell line, the cells were first washed with PPH free RPMI 1640 and then seeded at a concentration of 2.5×10^5 cells/mL using the same media in a 96 well plate. For T47D cells, the cells were first seeded in the culture media at 1.0×10^5 cells/well in a 24 well plate the day prior to treatment to allow for cell attachment. The media was then gently aspirated and replaced with the PPH free RPMI 1640 media prior to NP treatment. […]
Once treated with NPs, the cells were then cultured for 48 hours at 37° C. and 5% CO2. […] After optimizing the UV irradiation protocol, required UV exposure was determined to be 3 minutes for Jurkat cells and 2 minutes for T47D cells to re-establish the toxicity of the nZnO while minimizing effects to the cellular viability. Cell viability was assessed using the Alamar Blue metabolic assay. […] The fluorescence intensity measurements were performed using a Biotek Synergy MX plate reader using an excitation/emission of 530/590 nm.

Structure (SMILES): CC(=O)O[C@H]1C(=O)[C@@]2(C)[C@H]([C@H](OC(=O)c3ccccc3)[C@]3(O)C[C@H](OC(=O)[C@H](O)[C@@H](NC(=O)c4ccccc4)c4ccccc4)C(C)=C1C3(C)C)[C@]1(OC(C)=O)CO[C@@H]1C[C@@H]2O [PTX, Paclitaxel]
- effect of free (non-encapsulated) controls on viability: somewhat similar effect as the non-triggered release Enc-nZnO/PTX group
